The target in test [1] is T1, Prothrombin (Homo sapiens, UniProt P00734). The test can be described thus: Concentration required for 50 percent inhibition of Prothrombin.
Test [2] deals with T1, Prothrombin. Nature of the test: The compound was evaluated for binding affinity against Prothrombin.

The values that follow come from ChEMBL document CHEMBL1133375, “Exploring the chiral space within the active site of alpha-thrombin with a constrained mimic of D-Phe-Pro-Arg--design, synthesis, inhibitory activity, and X-ray structure of an enzyme-inhibitor complex” (Bioorg Med Chem Lett, 2000).

Each structure is given as a SMILES string.

Broadly, the IC50 is the concentration that inhibits the measured activity by half. A high value points to lower potency. Regarding `NCc1ccc(CNC(=O)[C@@H]2CC[C@H]3[C@@H](OCc4ccccc4)CCC(=O)N23)cc1`, the IC50 at Prothrombin [1] is 12600 nM.

Molecule `O=C(NCC1CCNCC1)[C@@H]1CC[C@H]2[C@@H](OCc3ccccc3)C[C@H](O)C(=O)N12` gave an IC50 at Prothrombin [1] of 12600 nM.

`NCc1ccc(CNC(=O)[C@@H]2CC[C@H]3[C@@H](OCc4ccccc4)C[C@H](O)C(=O)N23)cc1` gave an IC50 on Prothrombin [1] of 12600 nM.

Usually Ki stands for a measure of affinity in units of concentration, obtained from inhibition or displacement. Read a high Ki as weaker binding. Molecule `CO[C@H]1C[C@@](O)(Cc2ccccc2)C(=O)N2[C@H](C(=O)NCc3ccc(C(=N)N)cc3)CC[C@@H]12` displayed a Ki at Prothrombin [2] of 125 nM. Also, the IC50 at Prothrombin [1] was 251 nM.

Take `O=C(NCC1CCNCC1)[C@@H]1CC[C@H]2[C@@H](OCc3ccccc3)CCC(=O)N12`: it took 12600 nM to reach half-maximal inhibition against Prothrombin [1] (IC50).

Molecule `N=C(N)c1ccc(CNC(=O)[C@@H]2CC[C@H]3CC[C@@](O)(Cc4ccccc4)C(=O)N32)cc1` had a Ki at Prothrombin [2] of 9 nM. On Prothrombin [1], the IC50 was 20 nM.

Turning to `C[C@]1(O)CC[C@@H]2CC[C@@H](C(=O)NCc3ccc(C(=N)N)cc3)N2C1=O`, on Prothrombin [2], the Ki came out at 125 nM. Moreover, inhibition against Prothrombin [1] was half-maximal at 251 nM (IC50).
